Experiment [1] concerns the target T1, glycine site of the NMDA receptor complex (Rattus norvegicus, UniProt P35439).
T1 construct: Crude synaptic (P2) membranes are prepared from rat forebrains freshly dissected from male Wistar rats; from tissue; host or cells: forebrain of male Wistar rats, crude synaptic (P2) membranes, washed with Triton X-100
Briefly: In vitro [3H]-Glycine Binding to Rat Brain Membranes (Test 1). Also noted: species or system rat (male Wistar). Particulars: rat forebrain membranes, 4° C., 30 min, read-out: IC50, displacement of 50% of the specific binding of [3H]-glycine. How it is done:
The compounds according to the invention were tested as regards the affinity for one or more of the different types of excitatory amino acid receptors and studied in simple radioligand binding experiments. In essence, the method involves incubation of a particular selected radiolabelled ligand and the particular specific substance to be investigated with brain homogenates which contain the receptor. Measurement of receptor occupancy is made by determination of the specific radioactivity bound to the homogenate.
The glycine site binding activity of these compounds of the present invention can be illustrated by determining their capability for displacing radioactively labelled glycine from the glycine site.
The displacement activity of the compounds may be shown by determining the IC50 value which represents the concentration (μM) which causes a displacement of 50% of the specific binding of [^3 H)-glycine.
In vitro [^3 H]-Glycine Binding to Rat Brain Membranes (Test 1)
The membrane preparation and assay of specific [^3 H]-glycine binding is based upon methodology described by Haring et al. (1991) J. Neurochem. 57, 323-332 and Yoneda et al. (1991) J. Neurochem. 55, 237-244.
All steps are performed at 4° C. Buffers are prepared fresh each week from distilled, deionized water and filtered through sterile 0.2 μm membranes to eliminate artifacts due to microbial contamination. Crude synaptic (P2) membranes are prepared from rat forebrains freshly dissected from male Wistar rats and washed 4 times with low ionic strength buffer.,On the day of the assay these preparations are additionally washed with buffer containing a low concentration (0.08% g/g) of Triton X-100, and then twice more in the absence of this detergent. The procedure is aimed at the disruption of synaptic membrane vesicles and removal of endogenous amino acids.
Specific radioligand binding is measured by incubating membranes (400-600 μg/ml of protein) with […] [^3 H]-glycine in the presence or absence of 1mM of unlabelled glycine at 4° C. for 30 min. Free and bound ligand are separated by centrifugation. Each pellet is rinsed 2X and bound radioactivity measured by liquid scintillation counting. Test substances are substituted for unlabelled glycine in the assay.

The subject of experiment [2] is convulsions induced by i.c.v. infusion of NMDA. Briefly: Convulsions induced by i.c.v. infusion of NMDA (Test 2), time to onset of clonic seizures. It is filed as in vivo, mouse (male NMRI). Particulars: i.c.v. co-infusion with NMDA, mice. How it is done:
The glycine antagonists are co-infused with NMDA and their anticonvulsive effect is measured by determining a) the TVSO value which represents the dose (μg/kg) of the glycine antagonist that has to be infused per minute in order to increase time to onset of clonic seizures by 50%, b) the ED50 value which represents the dose (μg/kg) of the glycine antagonist that has to be infused per minute in order to protect 50% of the animals against clonic seizures for 150 seconds after the start of i.c.v. infusion.
Convulsions induced by i.c.v. infusion of NKDA (Test 2 & 3)
58.84 μg/ml ([…] in 2.5 μl) of NMDA (Sigma) dissolved in 0.9% NaCl is co-infused i.c.v. with a glycine antagonist at a speed of 5 μl/min. Infusion is performed through a cannula placed 1 mm posterior and 1 mm lateral to the Bregma point. The cannula is injected […] into the skull of male NMRI mice weighing 25 g (range 23-27 g). Placement and length of the cannula into the skull is fixed by a plate positioned 4.3 mm from the point of the cannula. The infusion is stopped after the appearance of clonic seizures in all extremities or 150 seconds after the start time of the infusion. At least 5 doses of each glycine antagonist are tested using 8 mice per dose.

This note sets out measurements from patent US5284847A, “Thieno pyrazine diones, their preparation and use” (Novo Nordisk A/S, priority 1991, dated 1994).

The structures appear in SMILES notation.

As a reminder, the IC50 is the concentration needed to halve the response being measured. As to `Cc1sc2[nH]c(=O)c(=O)[nH]c2c1C#N` [Example 6, 7-Cyano-6-methylthieno[2,3-b)pyrazine-2,3(1H,4H)-dione], in experiment [1], the 50% inhibitory concentration (IC50) amounted to 1.27 µM. Also, the “TV50, dose infused per minute to increase time to onset of clonic seizures by 50%” value in experiment [2] was determined as 0.044 mg/kg.
Consider `Cc1csc2[nH]c(=O)c(=O)[nH]c12` [Example 2, 7-Methylthieno(2,3-b)pyrazine-2,3(1H,4H)-dione], for which, in experiment [1], the IC50 worked out at 1 µM. Moreover, in experiment [2], the “TV50, dose infused per minute to increase time to onset of clonic seizures by 50%” value came out at 0.007 mg/kg.
The corresponding values for `O=c1[nH]c2scc(C3CC3)c2[nH]c1=O` [Example 25, 7-Cyclopropylthieno(2,3-b]pyrazine-2,3(1H,4H)-dione] are 0.85 µM and 0.076 mg/kg.
As to `O=c1[nH]c2scc(Br)c2[nH]c1=O` [Example 38, 7-Bromothieno(2,3-b)pyrazine-2,3(1H,4H)-dione], the 50% inhibitory concentration (IC50) in experiment [1] was determined as 0.18 µM. Moreover, the “TV50, dose infused per minute to increase time to onset of clonic seizures by 50%” value in experiment [2] was found to be 0.0348 mg/kg.
For the compound `CCCc1c(Cl)sc2[nH]c(=O)c(=O)[nH]c12` [Example 10, 6-Chloro-7-propylthieno[2,3-b)pyrazine-2,3(1H,4H)-dione], the IC50 in experiment [1] was 0.18 µM. Further, in experiment [2], the “TV50, dose infused per minute to increase time to onset of clonic seizures by 50%” value is 0.0094 mg/kg.
